From ChEMBL document CHEMBL1255402, “Staphylococcal cassette chromosome mec-like element in Macrococcus caseolyticus” (2010)
≈ marks a conversion by molar mass, not a printed value.

Experiments:
Type in all cases: functional
Conditions in all cases: Macrococcoides caseolyticum
Macrococcus caseolyticus [1] = assay: Antimicrobial activity against Macrococcus caseolyticus ATCC 13548T by agar dilution method
Macrococcus caseolyticus [2] = assay: Antimicrobial activity against multidrug-resistant Macrococcus caseolyticus JCSC7096 containing plasmid pMCCL2 which carries transposon containing (mecA(m)-mecR1(m)-mecI(m)-blaZ(m)) complex isolated from chicken by agar dilution method
Macrococcus caseolyticus [3] = assay: Antimicrobial activity against multidrug-resistant Macrococcus caseolyticus JCSC5402 containing plasmid pMCCL2 which carries transposon containing (mecA(m)-mecR1(m)-mecI(m)-blaZ(m)) complex isolated from chicken by agar dilution method
Macrococcus caseolyticus [4] = assay: Antimicrobial activity against Macrococcus caseolyticus ATCC 29750 by agar dilution method
Macrococcus caseolyticus [5] = assay: Antimicrobial activity against Macrococcus caseolyticus ATCC 51835 by agar dilution method
Macrococcus caseolyticus [6] = assay: Antimicrobial activity against Macrococcus caseolyticus ATCC 51834 by agar dilution method
Macrococcus caseolyticus [7] = assay: Antimicrobial activity against multidrug-resistant Macrococcus caseolyticus JCSC7528 containing plasmid pMCCL2 which carries transposon containing (mecA(m)-mecR1(m)-mecI(m)-blaZ(m)) complex isolated from chicken by agar dilution method

Cc1onc(-c2ccccc2)c1C(=O)N[C@@H]1C(=O)N2[C@@H]1SC(C)(C)[C@@H]2C(=O)O [OXACILLIN]
MIC (Macrococcus caseolyticus [1]): 0.125 µg/mL (≈ 0.311 µM)
MIC (Macrococcus caseolyticus [2]): 64 µg/mL (≈ 159 µM)
MIC (Macrococcus caseolyticus [3]): 128 µg/mL (≈ 319 µM)
MIC (Macrococcus caseolyticus [4]): 0.125 µg/mL (≈ 0.311 µM)
MIC (Macrococcus caseolyticus [5]): 0.25 µg/mL (≈ 0.623 µM)
MIC (Macrococcus caseolyticus [6]): 0.125 µg/mL (≈ 0.311 µM)
MIC (Macrococcus caseolyticus [7]): 32 µg/mL (≈ 79.7 µM)
